“And” between values parts separate entries of the source, which are not always exact repeats. Equal entries are not always repeated. Toxic doses and inconclusive results are not listed. Rule as the data show it: active = T/C of 150% or more; inactive = T/C below 125%.
Tested on: L1210 leukemia ip in BDF1 mice, survival T/C
Experiment: NCI In Vivo Anticancer Drug Screen. Data for tumor model L1210 Leukemia (intraperitoneal) in B6D2F1 (BDF1) mice
Details: endpoint: mean survival time, higher = longer survival
Procedure, shortened: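 Survival endpoint. Drug-treated group vs vehicle group, expressed as T divided by C. Tumor passaged by transplantation.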

[1] = dose: 100.0 mg/kg/injection, schedule: Q01DX001 (ip), vehicle: saline
[2] = dose: 100.0 mg/kg/injection, schedule: Q04DX003 (ip), vehicle: Klucel (hydroxypropylcellulose) (HPC)
[3] = dose: 100.0 mg/kg/injection, schedule: Q01DX001 (ip), vehicle: carboxymethylcellulose (CMC)
[4] = dose: 200.0 mg/kg/injection, schedule: Q01DX001 (ip), vehicle: carboxymethylcellulose (CMC)
[5] = dose: 400.0 mg/kg/injection, schedule: Q01DX001 (ip), vehicle: carboxymethylcellulose (CMC)
[6] = dose: 100.0 mg/kg/injection, schedule: Q01DX001 (ip), vehicle: saline with Tween-80
[7] = dose: 200.0 mg/kg/injection, schedule: Q01DX001 (ip), vehicle: saline with Tween-80
[8] = dose: 200.0 mg/kg/injection, schedule: Q04DX003 (ip), vehicle: Klucel (hydroxypropylcellulose) (HPC)
[9] = dose: 400.0 mg/kg/injection, schedule: Q04DX003 (ip), vehicle: Klucel (hydroxypropylcellulose) (HPC)
[10] = dose: 100.0 mg/kg/injection, schedule: Q04DX003 (ip), vehicle: saline
[11] = dose: 200.0 mg/kg/injection, schedule: Q04DX003 (ip), vehicle: saline
[12] = dose: 400.0 mg/kg/injection, schedule: Q04DX003 (ip), vehicle: saline
[13] = dose: 100.0 mg/kg/injection, schedule: Q01DX009 (ip), vehicle: saline with Tween-80
[14] = dose: 100.0 mg/kg/injection, schedule: Q04DX003 (ip), vehicle: saline with Tween-80
[15] = dose: 200.0 mg/kg/injection, schedule: Q01DX009 (ip), vehicle: saline with Tween-80
[16] = dose: 200.0 mg/kg/injection, schedule: Q04DX003 (ip), vehicle: saline with Tween-80
[17] = dose: 400.0 mg/kg/injection, schedule: Q01DX009 (ip), vehicle: saline with Tween-80
[18] = dose: 400.0 mg/kg/injection, schedule: Q04DX003 (ip), vehicle: saline with Tween-80
[19] = dose: 100.0 mg/kg/injection, schedule: Q01DX009 (ip), vehicle: Klucel (hydroxypropylcellulose) (HPC)
[20] = dose: 200.0 mg/kg/injection, schedule: Q01DX009 (ip), vehicle: Klucel (hydroxypropylcellulose) (HPC)
[21] = dose: 400.0 mg/kg/injection, schedule: Q01DX009 (ip), vehicle: Klucel (hydroxypropylcellulose) (HPC)
[22] = dose: 25.0 mg/kg/injection, schedule: Q01DX009 (ip), vehicle: saline
[23] = dose: 50.0 mg/kg/injection, schedule: Q01DX009 (ip), vehicle: saline
[24] = dose: 200.0 mg/kg/injection, schedule: Q01DX001 (ip), vehicle: saline
[25] = dose: 400.0 mg/kg/injection, schedule: Q01DX001 (ip), vehicle: saline
[26] = dose: 100.0 mg/kg/injection, schedule: Q01DX009 (ip), vehicle: saline
[27] = dose: 100.0 mg/kg/injection, schedule: Q04DX003 (ip), vehicle: acetone
[28] = dose: 200.0 mg/kg/injection, schedule: Q04DX003 (ip), vehicle: acetone
[29] = dose: 400.0 mg/kg/injection, schedule: Q04DX003 (ip), vehicle: acetone

Measured: T/C

O=C(O)C#Cc1ccccc1
inactive: dose: 25.0 mg/kg/injection, schedule: Q04DX003 (ip), vehicle: Klucel (hydroxypropylcellulose) (HPC) 107 % of control | dose: 50.0 mg/kg/injection, schedule: Q04DX003 (ip), vehicle: Klucel (hydroxypropylcellulose) (HPC) 98 % of control | [1] 100 % of control | [2] 96 % of control

ClCCN(CCCl)c1ccc(C=NCCCN=Cc2ccc(N(CCCl)CCCl)cc2Cl)c(Cl)c1
inactive: [3] 97 % of control | [4] 92 % of control | [5] 95 % of control

CN(CCC(=O)c1ccccc1)CCC(=O)c1ccccc1
inactive: [6] 93 % of control | [7] 94 % of control

ClC1=C(Br)C(Br)(Br)C(=C(Br)Br)C1(Br)Br
inactive: dose: 100.0 mg/kg/injection, schedule: Q01DX009 (ip), vehicle: saline sonified 96 % of control | [2] 106 % of control | dose: 200.0 mg/kg/injection, schedule: Q01DX009 (ip), vehicle: saline sonified 94 % of control | [8] 103 % of control | dose: 400.0 mg/kg/injection, schedule: Q01DX009 (ip), vehicle: saline sonified 102 % of control | [9] 97 % of control

O=S1(=O)CCCCC1C(O)(c1ccccc1)c1ccccc1 (stereo not given)
inactive: dose: 12.5 mg/kg/injection, schedule: Q04DX002 (ip), vehicle: saline with Tween-80 97 % of control | dose: 25.0 mg/kg/injection, schedule: Q04DX002 (ip), vehicle: saline with Tween-80 102 % of control | dose: 50.0 mg/kg/injection, schedule: Q04DX002 (ip), vehicle: saline with Tween-80 94 % of control

Nc1ncnc(N)c1NC(=O)c1cccnc1
inactive: [10] 92 % of control | [11] 96 % of control | [12] 100 % of control

N#CC1OB(O)c2ccccc21 (stereo not given)
inactive: [10] 93 % of control | [11] 100 % of control | [12] 93 % of control

CCCCCCCCC(=O)CCCCCC
inactive: [13] 99 % of control | [14] 105 % of control | [15] 97 % of control | [16] 108 % of control | [17] 99 % of control | [18] 101 % of control

ClC1=C(Cl)C2(Cl)CCC1(Cl)C2(Cl)Cl
inactive: [10] 101 % of control | [11] 97 % of control | [12] 108 % of control

CCN(CC)C(=S)N1CCCCC1
inactive: [19] 99 % of control | dose: 100.0 mg/kg/injection, schedule: Q04DX002 (ip), vehicle: Klucel (hydroxypropylcellulose) (HPC) 100 % of control | [20] 105 % of control | dose: 200.0 mg/kg/injection, schedule: Q04DX002 (ip), vehicle: Klucel (hydroxypropylcellulose) (HPC) 90 % of control | [21] 108 % of control | dose: 400.0 mg/kg/injection, schedule: Q04DX002 (ip), vehicle: Klucel (hydroxypropylcellulose) (HPC) 110 % of control

CCN(CC)CCOc1cccc(OC)c1
inactive: [22] 95 % of control | [23] 96 % of control | dose: 75.0 mg/kg/injection, schedule: Q01DX009 (ip), vehicle: saline 95 % of control and 108 % of control

NC(=NC1CCCCC1)c1ccc(C(=O)OCc2ccccc2)cc1
inactive: [3] 94 % of control | [4] 89 % of control | [5] 94 % of control

COc1cc2cc(C(=O)O)sc2cc1OC
inactive: [1] 91 % of control | [24] 91 % of control | [25] 91 % of control

Cc1ccc(S(=O)(=O)N(C)c2cc(Cl)c(C(=O)O)c(Cl)c2)cc1
inactive: [2] 96 % of control | [8] 105 % of control | [9] 97 % of control

CCN(CC)C(=O)c1ccc(COc2cc(Cl)cc(Cl)c2)cc1
inactive: [19] 94 % of control | [20] 97 % of control | [21] 96 % of control

CCOC(=O)C1C(O)=C(c2ccccc2)P(=O)(Cc2ccccc2)C1(C)C (stereo not given)
inactive: [14] 94 % of control | [16] 94 % of control | [18] 91 % of control

O=C(OCC1CC1)c1ccc(N=Nc2ccccc2)cc1
inactive: dose: 75.0 mg/kg/injection, schedule: Q04DX002 (ip), vehicle: Klucel (hydroxypropylcellulose) (HPC) 102 % of control | dose: 150.0 mg/kg/injection, schedule: Q04DX002 (ip), vehicle: Klucel (hydroxypropylcellulose) (HPC) 108 % of control | dose: 300.0 mg/kg/injection, schedule: Q04DX002 (ip), vehicle: Klucel (hydroxypropylcellulose) (HPC) 105 % of control

CC1(c2cccs2)C(=O)N(Cl)C(=O)N1Cl (stereo not given)
inactive: [22] 110 % of control | [23] 106 % of control | [26] 104 % of control | [10] 96 % of control

O=C(NCCCCCCCNC(=O)Nc1ccc(C2=NCCN2)cc1)Nc1ccc(C2=NCCN2)cc1
inactive: dose: 62.0 mg/kg/injection, schedule: Q01DX Z (ip), vehicle: carboxymethylcellulose (CMC) 107 % of control | dose: 125.0 mg/kg/injection, schedule: Q01DX Z (ip), vehicle: carboxymethylcellulose (CMC) 98 % of control | dose: 250.0 mg/kg/injection, schedule: Q01DX Z (ip), vehicle: carboxymethylcellulose (CMC) 98 % of control

CCOC(=O)c1ccc(NC(=O)Oc2ccc(-c3ccccc3)cc2)cc1
inactive: [6] 96 % of control | [13] 97 % of control and 102 % of control | dose: 100.0 mg/kg/injection, schedule: Q04DX002 (ip), vehicle: saline with Tween-80 94 % of control and 100 % of control | [7] 88 % of control | [15] 92 % of control and 97 % of control | dose: 200.0 mg/kg/injection, schedule: Q04DX002 (ip), vehicle: saline with Tween-80 101 % of control and 88 % of control | dose: 400.0 mg/kg/injection, schedule: Q01DX001 (ip), vehicle: saline with Tween-80 96 % of control | [17] 93 % of control and 100 % of control | dose: 400.0 mg/kg/injection, schedule: Q04DX002 (ip), vehicle: saline with Tween-80 97 % of control

O=C(NC1CCC(C(=O)O)CC1)OCc1ccccc1 (stereo not given)
inactive: [1] 98 % of control | [26] 109 % of control | [27] 96 % of control | [24] 102 % of control | dose: 200.0 mg/kg/injection, schedule: Q01DX009 (ip), vehicle: saline 100 % of control | [28] 102 % of control | [25] 98 % of control | dose: 400.0 mg/kg/injection, schedule: Q01DX009 (ip), vehicle: saline 105 % of control | [29] 98 % of control

O=C(c1ccccc1)C(CBr)C(Br)c1ccccc1 (stereo not given)
inactive: [19] 90 % of control | [2] 98 % of control | [20] 101 % of control | [8] 95 % of control | [21] 93 % of control | [9] 88 % of control

CCC(=O)CC1CCCC(CC(=O)CC)N1C (stereo not given)
inactive: dose: 9.5 mg/kg/injection, schedule: Q01DX001 (ip), vehicle: saline 96 % of control | dose: 19.0 mg/kg/injection, schedule: Q01DX001 (ip), vehicle: saline 104 % of control | dose: 38.0 mg/kg/injection, schedule: Q01DX001 (ip), vehicle: saline 102 % of control

CCOc1ccc(NS(=O)(=O)c2ccc(Cl)cc2)cc1
inactive: [19] 102 % of control | [20] 112 % of control | [21] 116 % of control

COc1ccc2c3c([nH]c2c1)-c1ccccc1SC3
inactive: [27] 101 % of control | [28] 106 % of control | [29] 101 % of control
